Structures are written as SMILES. ≈ marks a conversion by molar mass, not a printed value.

Data set [1] concerns BCRP. The settings on record: BCRP inhibitor; cited from earlier work.
In another data set the test system is Caco-2 cells. Description: Cellular uptake of rhein in cultured Caco-2 cell monolayers. The conditions noted are these: rhein 27.3 μg/ml. Type of data set: in vitro ADME, human. How it is done: Cell monolayers were prepared as described for the transport studies. […] Cells attached to the polycarbonate membranes were cut off from the inserts, immersed in 1 ml blank D-Hanks, and sonicated for 15 min. The mixture was centrifuged at 10,000 ×g for 5 min. The concentrations of all the samples were analyzed by UPLC-QTOF-HRMS-MS.

The subject of data set [2] is human colon adenocarcinoma cells (Caco-2). Also on record: method as in PMID 19538468. The conditions noted are these: Caco-2, 0.1–10 μg/ml; cited from earlier work.
The test system of a further data set is Caco-2 cell monolayer. Description: Transport of rhein across the Caco-2 cell monolayer (A to B, B to A). Type of data set: in vitro ADME, human. How it is done: (§1) For transport experiments, the cells were seeded at a density of 1 × 10^5 cells/ml on polycarbonate membranes of cell culture inserts (6.5 mm membrane diameter, 0.4 μm pore size, and 0.33 cm^2 surface area) and placed in 12-well cell culture clusters. The transepithelial electrical resistance (TEER) was assessed using a Millicell ERS-2 (Millipore, USA) to reflect the tightness of intercellular junctions. […] The transports of rhein alone, rhein in RE, PE, RPE, and TWCQT across Caco-2 monolayers were investigated. Briefly, the cell monolayers were washed 3 times with D-Hanks. After each wash, the plates were incubated in fresh D-Hanks for 30 min at 37°C. The transport experiments were conducted by adding the test solution to either the apical (A, 0.5 ml) or basolateral side (B, 1.5 ml), while the receiving chamber contained the corresponding volume of prewarmed drug-free D-Hanks. Every experiment was repeated 3 times, and the plates were incubated in an orbital shaker at 37°C. […] sequential samples (50 μl) were taken at different times (30, 60, 90, 120, and 150 min) from both sides of the cell monolayer. The same volume of D-Hanks was immediately added to replace the samples obtained. […] All inhibitors were loaded onto the A side of the monolayers. […] The concentrations of all the samples were analyzed by UPLC-QTOF-HRMS-MS. Data in the present study were presented as mean ± standard deviation (SD). Significant analysis was performed using Statistical Package for Social Sciences (SPSS) version 16.0 (SPSS Inc., Chicago, IL, USA). Statistical significance was determined by one-way ANOVA with Dunnett's test and differences were considered significant when p < 0.05. In the Caco-2 cell model, the rate of transport was obtained from the amount transported versus time curve using linear regression. The apparent permeability (Papp) used as an expression of the absorption rate constant was calculated as follows: Papp = (dQ/dt)/(A × C0), where dQ/dt is the rate at which the compound appears in the receiver chamber (mg/s), A is the surface area of the filter membrane ([…]), and C0 is the initial concentration in the donor chamber (mg/mL). Efflux ratio (ER) was calculated from the following equation: ER = […]), where Papp(B to A) is the Papp value measured in the B to A direction and Papp(A to B) is the Papp value measured in the A to B direction.
A general note: Caco-2 monolayers are a common model of the intestinal barrier.

Assay in data set [3]: as above
The data set is classed as in vitro ADME, human. The conditions noted are these: human, Caco-2, PE, RPE. How it is done:
as §1

A further data set has as its system MRP2. The description is as above. Type of data set: in vitro ADME, human. The settings on record: human, Caco-2, with MK-571 50 μmol/ml, loaded onto the A side; rhein 27.3 μg/ml; MK-571 50 μmol/ml (MRP2 inhibitor); read-out: ER of rhein in presence of MK-571. As to the method: as §1
In data set [4] the test system is BCRP. The data set is described as above. The data set is classed as in vitro ADME, human. The conditions noted are these: human, Caco-2, with Ko143 10 μmol/ml, loaded onto the A side; rhein 27.3 μg/ml; Ko143 10 μmol/ml (BCRP inhibitor); read-out: ER of rhein in presence of Ko143. How it is done:
as §1

For the next data set, the system named is P-gp. The description is as above. Type of data set: in vitro ADME, human. The conditions noted are these: human, Caco-2, with verapamil 50 μmol/ml, loaded onto the A side; rhein 27.3 μg/ml; verapamil 50 μmol/ml (P-gp inhibitor); read-out: ER of rhein in presence of verapamil. How it is done:
as §1

A short description of data set [5]: MTT cytotoxicity assay on Caco-2 cells. The data set is classed as cell-based. The conditions noted are these: human, 48 h exposure. As to the method:
Caco-2 cells were maintained in DMEM containing 10% FBS (inactivation at 56°C for 30 min), 1% NEAA, and 1% penicillin and streptomycin solution in a humidified atmosphere with 5% CO2 at 37°C. The medium was replaced every 2 days, and the cells were passaged at 80 to 90% confluence using trypsin/phosphate-buffered saline (PBS, pH 7.4). The cytotoxicity of rhein, RE, PE, RPE, and TWCQT to Caco-2 cells was evaluated by MTT assay. Briefly, 200 μl of Caco-2 cells was seeded in a 96-well plate (Coring, NY, USA) at a density of 2 × 10^4 cells/ml. Following incubation for 24 h, different concentrations of test solution were added. Thereafter, 20 μl of 5 mg/mL MTT was added, the medium was removed after 4 h, and the remaining formazan crystals were solubilized with 150 μl of dimethyl sulfoxide (DMSO). The absorbance was measured at 490 nm on a microplate reader (Thermo Scientific, Tokyo, Japan). Cells incubated without the test samples were used as controls. In each MTT assay, every sample was tested in 6 replicates.
On the technique in general: Formazan colour is commonly taken as a measure of viable cells.

`COc1ccc2c3c([nH]c2c1)[C@H](CC(C)C)N1C(=O)[C@H](CCC(=O)OC(C)(C)C)NC(=O)[C@@H]1C3` [Ko143]: the “selectivity over P-gp and MRP1 transporters” value in the data set on BCRP [1] is “higher than 200 fold”.
`O=C(O)c1cc(O)c2c(c1)C(=O)c1cccc(O)c1C2=O` [Rhein]: in the data set on Caco-2 cells (2 h, Ko143 10 μmol/ml), the “intracellular accumulation of rhein after Ko143” value is on record as “significantly increased”. In addition, the “intracellular amounts of rhein after MK-571” value in the data set with Caco-2 cells (2 h, MK-571 50 μmol/ml) is listed as “no significant changes”. In addition, the “intracellular amounts of rhein after verapamil” value with Caco-2 cells (2 h, verapamil 50 μmol/ml) is “no significant changes”. Moreover, the “cellular uptake of rhein” value in the data set on Caco-2 cells (A compartment, 2 h incubation) is given as 0.68 ng/μg protein. In data set [2], the “cytotoxic and genotoxic effects” value was “devoid of cytotoxic and genotoxic effects”. For the same molecule, the “ER of rhein at different concentrations” value in the data set on Caco-2 cell monolayer (8.61, 17.22, 34.44, 27.3, 54.6 and 109.2 μg/ml rhein) is recorded as “more than 1.5”. Moreover, in the data set with Caco-2 cell monolayer (rhein 27.3 μg/ml, Ko143 10 μmol/ml, p < 0.01), the “amounts of rhein transported from B to A after Ko143” value is “significantly decreased”. Further, the “influence of MK-571 on Papp values of rhein from B to A” value with Caco-2 cell monolayer (rhein 27.3 μg/ml, MK-571 50 μmol/ml, p < 0.05) is “significant influences”. The “influence of verapamil on Papp values of rhein from A to B or B to A” value in the data set on Caco-2 cell monolayer (rhein 27.3 μg/ml, verapamil 50 μmol/ml) was “no significant influence”. The Papp (usually a coefficient for how fast a substance crosses the barrier) at 150 min, 27.3 μg/ml in [3] (apical to basolateral, rhein 27.3 μg/ml, TWCQT 1 mg/ml, read-out: Papp PAB of rhein) amounted to 2.31 ± 0.13 ×10⁻⁶ cm/s. The Papp at 150 min, 54.6 μg/ml in data set [3] (apical to basolateral, rhein 54.6 μg/ml, TWCQT 2 mg/ml, read-out: Papp PAB of rhein) worked out at 2.58 ± 0.26 ×10⁻⁶ cm/s. In addition, the apparent permeability coefficient (Papp) at 150 min, 109.2 μg/ml in data set [3] (apical to basolateral, rhein 109.2 μg/ml, TWCQT 4 mg/ml, read-out: Papp PAB of rhein) was determined as 2.52 ± 0.19 ×10⁻⁶ cm/s. Moreover, the Papp B→A at 150 min, 27.3 μg/ml in [3] (basolateral to apical, rhein 27.3 μg/ml, TWCQT 1 mg/ml, read-out: Papp PBA of rhein) turned out to be 6.54 ± 0.27 ×10⁻⁶ cm/s. Further, the Papp B→A at 150 min, 54.6 μg/ml in [3] (basolateral to apical, rhein 54.6 μg/ml, TWCQT 2 mg/ml, read-out: Papp PBA of rhein) turned out to be 7.02 ± 0.58 ×10⁻⁶ cm/s. Also, the Papp B→A at 150 min, 109.2 μg/ml in data set [3] (basolateral to apical, rhein 109.2 μg/ml, TWCQT 4 mg/ml, read-out: Papp PBA of rhein) is 6.72 ± 0.31 ×10⁻⁶ cm/s. Also, the efflux ratio at 150 min, 27.3 μg/ml was 2.83 in data set [3] (rhein 27.3 μg/ml, TWCQT 1 mg/ml, read-out: ER PBA/PAB of rhein); 1.98 in the data set on MRP2; 1.27 in the data set on BCRP [4]; 2.12 in the data set with P-gp. The efflux ratio at 150 min, 54.6 μg/ml in data set [3] (rhein 54.6 μg/ml, TWCQT 2 mg/ml, read-out: ER PBA/PAB of rhein) was 2.72. In addition, the efflux ratio at 150 min, 109.2 μg/ml in [3] (rhein 109.2 μg/ml, TWCQT 4 mg/ml, read-out: ER PBA/PAB of rhein) was 2.38. Also, the midpoint of inhibition in [5], the IC50 at 48 h, lay at 3490 ± 960 µg/mL (≈ 12.3 mM).

The values are drawn from article PMC5831597, “Alleviating the Intestinal Absorption of Rhein in Rhubarb through Herb Compatibility in Tiaowei Chengqi Tang in Caco-2 Cells” (Evidence-based Complementary and Alternative Medicine : eCAM, 2018).
